For one assay, the target named is PDE4B2 (Homo sapiens, UniProt Q07343). The conditions noted are these: for IC50: read-out: PDE4B2 IC50, enzyme assay.
The next assay addresses Flpin-293-PDE4B2 cells (Homo sapiens, UniProt Q07343). Put plainly: cell-based. The conditions noted are these: for inhibition at 0.001 µM: read-out: Cell Inhibition % @1 nM, 1 nM, Flpin-293-PDE4B2 cells; for inhibition at 0.01 µM: read-out: Cell Inhibition % @10 nM, 10 nM, Flpin-293-PDE4B2 cells; for inhibition at 0.1 µM: read-out: Cell Inhibition % @100 nM, 100 nM, Flpin-293-PDE4B2 cells.

For the next assay, the target named is PDE4D2 (Homo sapiens, UniProt Q08499). Put plainly: PDE4D2 enzyme experiment (AMP-Glo). The conditions noted are these: read-out: PDE4D2 IC50 Binding; enzyme assay.
Chain of PDE4D2 (Q08499 303-809 limits assumed): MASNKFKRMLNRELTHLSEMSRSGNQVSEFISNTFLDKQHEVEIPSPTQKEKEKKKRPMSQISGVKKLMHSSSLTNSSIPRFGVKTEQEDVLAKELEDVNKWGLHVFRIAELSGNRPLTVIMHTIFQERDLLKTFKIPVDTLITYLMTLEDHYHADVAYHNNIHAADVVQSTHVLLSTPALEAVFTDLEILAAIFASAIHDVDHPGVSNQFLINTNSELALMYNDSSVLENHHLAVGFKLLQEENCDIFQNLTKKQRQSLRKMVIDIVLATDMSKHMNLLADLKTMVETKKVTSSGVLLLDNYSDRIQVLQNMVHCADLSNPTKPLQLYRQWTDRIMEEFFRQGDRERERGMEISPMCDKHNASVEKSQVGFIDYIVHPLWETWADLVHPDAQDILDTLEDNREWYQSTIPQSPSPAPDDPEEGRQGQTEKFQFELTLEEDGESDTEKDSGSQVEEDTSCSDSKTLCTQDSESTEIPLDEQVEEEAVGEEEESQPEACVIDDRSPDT

Chain of Flpin-293-PDE4B2 cells (Q07343 1-564 isoform Q07343-2): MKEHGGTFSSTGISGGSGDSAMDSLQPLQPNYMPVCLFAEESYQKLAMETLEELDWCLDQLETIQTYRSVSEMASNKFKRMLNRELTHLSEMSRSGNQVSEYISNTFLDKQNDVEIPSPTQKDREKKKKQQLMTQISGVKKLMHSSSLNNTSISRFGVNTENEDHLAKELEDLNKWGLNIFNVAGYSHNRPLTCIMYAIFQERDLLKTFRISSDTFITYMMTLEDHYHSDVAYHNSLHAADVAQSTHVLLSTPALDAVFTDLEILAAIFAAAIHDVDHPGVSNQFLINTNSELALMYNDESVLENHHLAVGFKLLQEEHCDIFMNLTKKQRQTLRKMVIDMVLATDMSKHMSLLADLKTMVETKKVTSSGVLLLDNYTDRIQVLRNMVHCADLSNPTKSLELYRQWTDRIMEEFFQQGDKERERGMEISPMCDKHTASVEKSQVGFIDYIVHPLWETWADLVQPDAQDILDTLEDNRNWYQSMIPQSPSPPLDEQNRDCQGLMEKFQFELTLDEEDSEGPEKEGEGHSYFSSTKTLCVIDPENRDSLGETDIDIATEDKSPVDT
Chain of PDE4B2 (Q07343 1-564 isoform Q07343-2, species assumed): as the sequence (Q07343 1-564 isoform Q07343-2) above
Method for PDE4D2: All compounds were dissolved in DMSO into 10 mM or 20 mM stock solutions. The compound to be tested was diluted with DMSO in a 3-fold gradient. 20 nL/well of the compound or a DMSO control was transferred to a 384-well plate by using Echo 550 instrument. The plate was sealed with a membrane and centrifuged for 1 minute. A 2× enzyme solution was prepared with an assay buffer, and 2 uL/well of the 2× enzyme solution was added, followed by equilibration at room temperature for 10 minutes. A 2× Cyclic-3′,5′-AMP substrate solution was prepared with an assay buffer, and 2 uL/well of the 2× substrate solution was added, followed by incubation at room temperature for 60 minutes. 4 μL of AMP-glo reagent was added, followed by incubation at room temperature for 60 minutes. 8 ul of an AMP detection solution was added, followed by incubation at room temperature for 60 minutes. An RLU value was read on Envision 2105 plate reader. The RLU value represents the concentration of the product AMP. Inhibition rate %=(1−(RLUpositive control−RLUcomnpound)/(RLUpositive control−RLUnegative control))*100. The IC50 value was then calculated by Graphpad 8.0 software using Y=Bottom+(Top−Bottom)/(1+10^((LogIC50−X)*HillSlope)).

As for `[O-][S+]1CCc2nc(N3CC[C@@H]4c5ccc(Cl)nc5OC[C@H]4C3)nc(NC3(CO)CCC3)c21` (stereo partly drawn) [Compound 119], the IC50 (in general, the midpoint of a concentration-inhibition curve) on PDE4B2 was found to be 1.37 nM. For the same molecule, at Flpin-293-PDE4B2 cells, the inhibition (as a rule, the relative decrease from the control value, in per cent) at 0.001 µM was 14%; the inhibition at 0.01 µM came out at 55.1%; the inhibition at 0.1 µM was 96%. Also, on PDE4D2, the concentration for half-maximal inhibition (IC50) was 2.79 nM.

Turning to `C[C@H]1CN(c2nc3c(c(NC4(CO)CCC4)n2)[S+]([O-])CC3)Cc2ccc(Cl)cc21` (stereo partly drawn) [Compound 120], the IC50 on PDE4B2 is 0.98 nM. At Flpin-293-PDE4B2 cells, the inhibition at 0.001 µM was 4.1%, the inhibition at 0.01 µM was 7.4% and the inhibition at 0.1 µM is 23.1%.

Regarding `C[C@@H]1Cc2cc(Cl)ccc2CN1c1nc2c(c(NC3(CO)CCC3)n1)[S+]([O-])CC2` (stereo partly drawn) [Compound 121], at PDE4B2, the concentration for half-maximal inhibition (IC50) came to 13.5 nM. Also, at Flpin-293-PDE4B2 cells, the inhibition at 0.001 µM worked out at 0.4%, the inhibition at 0.01 µM was determined as 10% and the inhibition at 0.1 µM was found to be 29.4%. Further, on PDE4D2, the IC50 was 48.2 nM.

On to `C[C@H]1Cc2cc(Cl)ccc2CN1c1nc2c(c(NC3(CO)CCC3)n1)[S+]([O-])CC2` (stereo partly drawn) [Compound 122], for which, at PDE4B2, the IC50 was determined as 0.838 nM. Besides, on Flpin-293-PDE4B2 cells, the inhibition at 0.001 µM was found to be 5.4%, the inhibition at 0.01 µM was 49.9% and the inhibition at 0.1 µM turned out to be 96.8%. Moreover, the IC50 on PDE4D2 came to 2.04 nM.

As for `C[C@@H]1c2ccc(Br)cc2CCN1c1nc2c(c(NC3(CO)CCC3)n1)[S+]([O-])CC2` (stereo partly drawn) [Compound 124], on PDE4B2, the IC50 was 0.98 nM. Further, at Flpin-293-PDE4B2 cells, the inhibition at 0.001 µM worked out at 8.7%, the inhibition at 0.01 µM amounted to 42.6% and the inhibition at 0.1 µM came to 97.3%. Further, the IC50 at PDE4D2 amounted to 2.92 nM.

Consider `[O-][S+]1CCc2nc(N3CCc4cc(Cl)ccc4[C@H]3C3CC3)nc(NC3(CO)CCC3)c21` (stereo partly drawn) [Compound 125], for which the IC50 on PDE4B2 turned out to be 0.968 nM. Further, at Flpin-293-PDE4B2 cells, the inhibition at 0.001 µM came to 2.85%, the inhibition at 0.01 µM came to 21.8% and the inhibition at 0.1 µM worked out at 90.6%. On PDE4D2, the IC50 was 1.98 nM.

With `CN(C)c1ccc2c(c1)CCN(c1nc3c(c(NC4(CO)CCC4)n1)[S+]([O-])CC3)C2` (stereo not drawn) [Compound 126], on PDE4B2, the IC50 came out at 0.951 nM. Further, on Flpin-293-PDE4B2 cells, the inhibition at 0.001 µM was found to be 19.8%, the inhibition at 0.01 µM turned out to be 77.4% and the inhibition at 0.1 µM worked out at 100%. Besides, on PDE4D2, the IC50 came to 1.64 nM.

With `NC(=O)Cc1ccc(Nc2nc(N3CCc4cc(Cl)ccc4C3)nc3c2[S+]([O-])CC3)cc1` (stereo not drawn) [Compound 127], at PDE4B2, the IC50 worked out at 0.164 nM. Moreover, at Flpin-293-PDE4B2 cells, the inhibition at 0.001 µM worked out at 9.78%, the inhibition at 0.01 µM stood at 73% and the inhibition at 0.1 µM came to 100%. Also, the IC50 at PDE4D2 is 0.424 nM.

Consider `[O-][S+]1CCc2nc(N3CCc4cc(N5CC[C@@H](O)C5)ccc4C3)nc(NC3(CO)CCC3)c21` (stereo partly drawn) [Compound 130], for which, on PDE4B2, the IC50 is 0.297 nM. Moreover, on Flpin-293-PDE4B2 cells, the inhibition at 0.001 µM amounted to 11.8%, the inhibition at 0.01 µM worked out at 57.9% and the inhibition at 0.1 µM was determined as 100%. The IC50 on PDE4D2 is 0.59 nM.

As for `[O-][S+]1CCc2nc(N3CCc4cc(N5CC[C@@H](CO)C5)ccc4C3)nc(NC3(CO)CCC3)c21` (stereo partly drawn) [Compound 131], the IC50 at PDE4B2 amounted to 0.147 nM. At Flpin-293-PDE4B2 cells, the inhibition at 0.001 µM was determined as 16.6%, the inhibition at 0.01 µM came to 76% and the inhibition at 0.1 µM stood at 98.7%. Also, the IC50 on PDE4D2 was found to be 0.333 nM.

Turning to `CN1C[C@H]2C[C@@H]1CN2c1ccc2c(c1)CCN(c1nc3c(c(NC4(CO)CCC4)n1)[S+]([O-])CC3)C2` (stereo partly drawn) [Compound 155], the IC50 at PDE4B2 came to 0.692 nM. Moreover, at Flpin-293-PDE4B2 cells, the inhibition at 0.001 µM amounted to 12%, the inhibition at 0.01 µM stood at 46.8% and the inhibition at 0.1 µM was determined as 76.1%.

For `[O-][S+]1CCc2nc(N3CCc4cc(N5C[C@@H]6[C@@H](CO)[C@@H]6C5)ccc4C3)nc(NC3(CO)CCC3)c21` (stereo partly drawn) [Compound 174], the figures for the IC50 on PDE4B2 and on PDE4D2 were 0.197 nM and 0.231 nM, respectively.

Take `[O-][S+]1CCc2nc(N3CCc4cc(N5CCCC5)ncc4C3)nc(NC3(CO)CCC3)c21` (stereo not drawn) [Compound 183]: the IC50 at PDE4B2 stood at 0.413 nM. Moreover, at Flpin-293-PDE4B2 cells, the inhibition at 0.001 µM was 12.8%, the inhibition at 0.01 µM came to 78.5% and the inhibition at 0.1 µM was 99.9%.

With `[O-][S+]1CCc2nc(N3CCc4nc(N5CCCC5)sc4C3)nc(NC3(CO)CCC3)c21` (stereo not drawn) [Compound 195], the IC50 stood at 0.956 nM at PDE4B2 and 1.12 nM on PDE4D2.

Turning to `Cn1cnc(Nc2nc(N3CCc4cc(N5CCCC5)ccc4C3)nc3c2[S+]([O-])CC3)c1` (stereo not drawn) [Compound 197], the IC50 on PDE4B2 turned out to be 13.3 nM; at PDE4D2, 23.8 nM.

As for `C[C@H]1c2ccc(N3CCCC3)cc2CCN1c1nc2c(c(Nc3cnn(C4COC4)c3)n1)[S+]([O-])CC2` (stereo partly drawn) [Compound 208], the figures for the IC50 at PDE4B2 and on PDE4D2 were 0.22 nM and 0.766 nM, respectively.

On to `C[C@H]1c2ccc(N3CCCC3)cc2CCN1c1nc2c(c(Nc3cnn(CCO)c3)n1)[S+]([O-])CC2` (stereo partly drawn) [Compound 210], for which the IC50 at PDE4D2 came out at 1.21 nM.

In the case of `C[C@H]1c2ccc(N3CCCC3)cc2CCN1c1nc2c(c(Nc3ncnn3C)n1)[S+]([O-])CC2` (stereo partly drawn) [Compound 217], on Flpin-293-PDE4B2 cells, the inhibition at 0.001 µM came to 2.48%, the inhibition at 0.01 µM was determined as 25% and the inhibition at 0.1 µM was found to be 84.5%.

On to `C[C@H]1c2ccc(N3CCCC3)cc2CCN1c1nc2c(c(Nc3ccnn3CCO)n1)[S+]([O-])CC2` (stereo partly drawn) [Compound 219], for which, at Flpin-293-PDE4B2 cells, the inhibition at 0.001 µM was found to be 6.98%, the inhibition at 0.01 µM turned out to be 32.6% and the inhibition at 0.1 µM amounted to 66.3%.

In the case of `C[C@H]1c2ccc(N3CCCC3)cc2CCN1c1nc2c(c(Nc3cnn(CCC#N)c3)n1)[S+]([O-])CC2` (stereo partly drawn) [Compound 220], on Flpin-293-PDE4B2 cells, the inhibition at 0.001 µM amounted to 13.8%, the inhibition at 0.01 µM is 73.4% and the inhibition at 0.1 µM was determined as 100%.

With `C[C@H]1c2ccc(N3CCCC3)cc2CCN1c1nc2c(c(NC3(CO)CCCC3)n1)[S+]([O-])CC2` (stereo partly drawn) [Compound 221], on Flpin-293-PDE4B2 cells, the inhibition at 0.001 µM is 11.3%, the inhibition at 0.01 µM is 71.5% and the inhibition at 0.1 µM was 99.7%.

As to `CC(=O)N1CC[C@H](Nc2nc(N3CCc4cc(N5CCCC5)ccc4[C@@H]3C)nc3c2[S+]([O-])CC3)C1` (stereo partly drawn) [Compound 222], at Flpin-293-PDE4B2 cells, the inhibition at 0.001 µM was 41.5%, the inhibition at 0.01 µM worked out at 96.2% and the inhibition at 0.1 µM was determined as 101%.

For the molecule `Cn1cc(Nc2nc(N3CCc4cc(N5CC6CC6C5)ccc4C3)nc3c2[S+]([O-])CC3)cn1` (stereo not drawn) [Compound 223], on Flpin-293-PDE4B2 cells, the inhibition at 0.001 µM amounted to 11.3%, the inhibition at 0.01 µM was found to be 73.7% and the inhibition at 0.1 µM stood at 99.2%.

With `C[C@H]1c2ccc(N3CCC(F)(F)C3)cc2CCN1c1nc2c(c(NC3(CO)CCC3)n1)[S+]([O-])CC2` (stereo partly drawn) [Compound 224], on Flpin-293-PDE4B2 cells, the inhibition at 0.001 µM was 10.7%, the inhibition at 0.01 µM was 44.4% and the inhibition at 0.1 µM was 98.9%.

As for “(R)-2-(7-fluoro-6-(pyrrolidin-1-yl)-3,4-dihydroisoquinolin-2(1H)-yl)-4-((1-(hydroxymethyl)cyclobutyl)amino)-6,7-dihydrothieno[3,2-d]pyrimidine 5-oxide [Compound 181]”, the IC50 at PDE4D2 was 0.876 nM.

As for “(R)-4-((1-(hydroxymethyl)cyclobutyl)amino)-2-(6-(1-methyl-2,5-dihydro-1H-pyrrol-3-yl)-3,4-dihydroisoquinolin-2(1H)-yl)-6,7-dihydrothieno[3,2-d]pyrimidine 5-oxide [Compound 169]”, the “PDE4B2 Enzyme Inhibition % @10 nM” value on PDE4B2 (10 nM) was found to be 20.43%. The “PDE4B2 Enzyme Inhibition % @100 nM” value on PDE4B2 (100 nM) is 78.77%.

For the origin of these results see patent publication US20260285880A1, “SUBSTITUTED DIHYDROTHIENOPYRIMIDINE COMPOUND, PREPARATION METHOD THEREFOR, AND USE THEREOF” (SHANGHAI YIDI BIOTECHNOLOGY CO., LTD., priority 2023, published 2026).
